Source: article PMC6694155, “PTPσ inhibitors promote hematopoietic stem cell regeneration” (Nature Communications, 2019)
Values joined by “and” are separate entries in the source; they are usually repeats but may differ in a detail not shown here. Equal values may be shown once.

Experiments:
[1] = system: BM KSL cells; donor CD45.2+ cells; assay: In vivo BrdU incorporation analysis; design: species or system mouse
Description: For BrdU incorporation analysis in BM KSL cells in vivo, adult C57Bl/6 mice were irradiated with 750 cGy TBI and treated with 5 mg/kg DJ001 or vehicle daily from day + 1 to day + 10. On day + 10, mice were injected intraperitoneally with 2 mg BrdU (BD Biosciences). Sixteen hours later, BM cells were collected and stained with anti-BrdU FITC (BD Biosciences, #557891, 1:50), APC-Cy7-conjugated anti-Sca1 (BD Biosciences, #560654, 1:100), PE-conjugated anti-c-kit (BD Biosciences, #553355, 1:100), and V450 lineage cocktail (BD Biosciences, #561301, 1:10). We repeated this BrdU incorporation analysis on donor CD45.2^+ cells at day + 7 and day + 21 following competitive transplantation into recipient CD45.1^+ mice.

BM KSL cells [2] = assay: Transendothelial migration assay; assay type: cell-based, mouse
Description: For the transendothelial migration assay,VeraVec^TM mouse spleen ECs (Angiocrine Biosciences) were cultured to confluence in […] pore transwells (Corning Incorporated). Transwells were then seeded with 50,000 sorted BM KSL cells in IMDM with 10% FBS, 1% pen-strep, 20 ng/mL TPO, 125 ng/mL SCF, and 50 ng/mL Flt3 ligand with or without 1 µg/mL of DJ001. SDF-1, 500 ng/mL (R&D Systems), was added to the bottom chamber of the transwell. At 18 h post incubation, cells in the bottom chamber were collected and cell counts were performed.

human BM CD34+ cells = assay: CFU-GEMM from 300 cGy-irradiated human BM CD34+ cells; assay type: cell-based
Description: CFC assays (colony-forming unit-granulocyte monocyte), burst-forming unit-erythroid, and CFU-GEMM were performed using MethoCult GF M3434 (Stemcell Technologies)[6]. For all in vitro assays, BM CD34^−KSL cells, KSL cells, and Lin^− cells were cultured in TSF media (IMDM, 10% FBS, 1% pen-strep, 20 ng/mL recombinant mouse TPO, 125 ng/mL recombinant mouse SCF, 50 ng/mL recombinant mouse Flt3 ligand). Recombinant mouse SCF, Flt3 ligand, and TPO were purchased from R&D Systems. For competitive repopulation assays, BM cells were isolated from donor 10–12-week-old female CD45.2^+ mice. Recipient 10-week-old female CD45.1^+ B6.SJL mice were irradiated with 950 cGy TBI using a Cs137 irradiator and donor BM cells were administered via tail vein injection along with a competing dose of 1 × 10^5 non-irradiated host BM cells. Multilineage donor hematopoietic cell engraftment was measured in the PB by flow cytometry.
Human BM mononuclear cells were purchased from AllCells. Cryopreserved human BM cells were recovered in IMDM + 10% FBS + 1% penicillin–streptomycin and then positively selected for CD34^+ stem/progenitor cells by using CD34 MicroBead Kit (Miltenyi Biotec, #130-046-702, 1:5). […]

BM KSL cells [3] = assay: Cell cycle analysis (Ki67/7AAD) of BM KSL cells; assay type: cell-based, mouse; settings: non-irradiated BM KSL cells, 36 hours
[4] = target: T1, PTPMEG1 (Megakaryocyte Protein-Tyrosine Phosphatase 1) (Homo sapiens, UniProt P29074); assay: PhosphataseProfiler screen: PTPMEG1; assay type: biochemical; settings: replicates
T1 construct: purchased Eurofins Pharma Discovery Services UK
T1 sequence (P29074 whole entry): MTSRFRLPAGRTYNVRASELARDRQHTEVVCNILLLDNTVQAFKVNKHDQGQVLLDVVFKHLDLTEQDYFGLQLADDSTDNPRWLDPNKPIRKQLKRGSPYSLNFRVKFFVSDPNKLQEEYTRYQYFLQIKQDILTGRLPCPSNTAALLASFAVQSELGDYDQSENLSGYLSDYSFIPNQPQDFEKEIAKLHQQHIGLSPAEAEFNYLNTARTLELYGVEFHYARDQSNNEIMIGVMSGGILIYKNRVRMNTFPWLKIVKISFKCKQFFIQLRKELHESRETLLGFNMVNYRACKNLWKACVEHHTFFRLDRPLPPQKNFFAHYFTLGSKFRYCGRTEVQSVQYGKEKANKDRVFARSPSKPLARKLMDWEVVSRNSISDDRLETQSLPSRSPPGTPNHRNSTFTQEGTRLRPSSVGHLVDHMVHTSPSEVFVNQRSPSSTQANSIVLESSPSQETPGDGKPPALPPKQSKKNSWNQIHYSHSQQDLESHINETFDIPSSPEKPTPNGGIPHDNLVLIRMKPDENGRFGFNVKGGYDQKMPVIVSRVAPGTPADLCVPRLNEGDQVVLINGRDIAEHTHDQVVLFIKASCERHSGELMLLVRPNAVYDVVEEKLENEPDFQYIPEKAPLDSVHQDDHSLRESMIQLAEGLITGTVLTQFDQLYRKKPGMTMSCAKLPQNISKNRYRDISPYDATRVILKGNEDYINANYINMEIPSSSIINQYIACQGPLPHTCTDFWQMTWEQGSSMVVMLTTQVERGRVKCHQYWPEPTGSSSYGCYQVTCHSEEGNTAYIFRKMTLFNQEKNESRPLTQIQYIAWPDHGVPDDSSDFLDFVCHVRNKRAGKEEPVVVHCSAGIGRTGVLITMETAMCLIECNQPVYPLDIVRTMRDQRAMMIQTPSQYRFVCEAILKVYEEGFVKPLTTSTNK
Description: Compound DJ001 was evaluated in a PhosphataseProfiler™ screen at 10 μM and 1 μM (2.7 μg/mL and 0.27 μg/mL) concentrations at Eurofins Pharma Discovery Services UK (Study number UK022-0004033) against a panel of 21 Phosphatases. In each experiment, the respective reference antagonist/agonist was tested directly with DJ001 and the data were compared with historical values determined at Eurofins. DJ001 compound inhibition was calculated as percentage inhibition of the enzymatic activity compared with control.

Q: For `O=C(/C=C\Nc1cccc([N+](=O)[O-])c1)c1ccccc1` [DJ001, (Z)-3-((3-nitrophenyl)amino)-1-phenylprop-2-en-1-one], which BrdU incorporation ([1]; Supplementary Figure 7i) is on record?
A: 36.54 and 44.684 and 44.262 and 33.456

Q: And the “BrdU incorporation in donor CD45.2+ cells, DJ001 vs vehicle group” value ([1]; day +7 and day +21 following competitive transplantation)?
A: no difference in BrdU incorporation

Q: And the “BrdU incorporation in BM KSL cells vs vehicle” value ([1]; day +10 following 750 cGy TBI)?
A: increased bromodeoxyuridine (BrdU) incorporation

Q: And the “in vitro migration of BM KSL cells through EC monolayers” value (BM KSL cells [2]; 1 µg/mL DJ001, 18 h)?
A: did not alter the in vitro migration

Q: And the “number of cells within the lower chambers, per replicate (Supplementary Figure 8a)” value (BM KSL cells [2]; 1 µg/ml DJ001, 18 hours)?
A: 17.5 and 8.74 and 19.1 and 21.8 and 10.9

Q: And the “Figure 5b: CFU-GEMM” value (human BM CD34+ cells; 300 cGy-irradiated human BM CD34+ cells, replicates)?
A: 8 and 13 and 15 and 22 and 19 and 14

Q: What about the “recovery of multipotent CFU-GEMMs” value (human BM CD34+ cells; 72 h following 300 cGy irradiation of human BM CD34+ cells) of the same molecule?
A: increased the recovery of multipotent CFU-GEMMs

Q: And the cell cycle status (BM KSL cells [3])?
A: did not alter the cell cycle status

Q: What about the “Supplementary Figure 1: PTP MEG1 activity” value ([4]; 2.7 μg/mL DJ001) of the same molecule?
A: 100 and 92 and 105

Q: And the “Supplementary Figure 1: PTP MEG1 activity” value ([4]; 0.27 g/mL DJ001)?
A: 103 and 114 and 105
